We go through 8 compounds from patent US12465609B2, “Methods of treating patients suffering from a disease condition or disorder that is associated with an increased glutamate level” (veriNOS operations GmbH, priority 2022, dated 2025).

Data set [1] has as its system C57 BL/6 mice, controlled cortical impact (CCI) model. Put plainly: Controlled cortical impact (CCI) model in mice, intracranial pressure (ICP). The format is in vivo. The settings on record: for therapeutic activity of metabolites of VAS203: mouse, in vivo. The source says:
The primary objective of this experiment was the characterization of the intracranial pressure (ICP) reduction by VAS3384 in the controlled cortical impact (CCI) model in mice. The secondary objective was characterization of the neuroprotective effect (reduction of the lesion volume) of VAS3384 in the controlled cortical impact model in mice.
• Test compound A • Denomination: VAS 3384 • Active agent: 4-Amino-4-desoxy-7,8-dihydrobiopterin-dihydrochloride, obtained from Schircks Laboratories, Bauma, Switzerland • Detailed composition: VAS 3384 dissolved in sodium phosphate buffer (PBS) pH 7.4 • Formulation method: 15 mg of the test compound (VAS 3384) are dissolved in 500 μl PBS, pH 7.4. The solution is neutralized with 72 μl 1 N NaOH and filled up with 428 μl water (check pH). • Final concentration of active agent: 15 mg/ml • Appearance: yellow, clear solution • Storage (solid test compound): −20° C. • Dose applied: 560 mg/kg or 37.3 ml/kg • Way of administration: intravenous injection/infusion • Negative control • Denomination: sodium phosphate buffer (PBS) • Active agent: none • Detailed composition: Na2HPO4, NaH2PO4, 100 mM pH 7.4 • Formulation method: ready for use • Final concentration of active agent: not applicable • Appearance: colourless, clear solution • Expiration date: 3 months after preparation • Volume applied: 37.3 ml/kg • Way of administration: intravenous injection/infusion Experimental Procedure
The animals (C57 BL/6 mice), under Dormicum/Methidomidin/Fentanyl-narcosis were fixed in a stereo tactical frame and the scalp was opened with a cut along the median. The skull bone
was laid open and disinfected with H2O2. A hole of approx. 1.2 mm diameter was then drilled into the skull (Bregma 0.4-0.4 mm). The ICP-probe was introduced through this hole. The V. jugularis was be laid open and a catheter introduced. This catheter was introduced in the neck subcutaneously and fixed on the cap of the cage with a protective spiral of metal. This setup permitted an infusion in awake animals. The skull was opened above of the right cortex and mechanically traumatized (CCI model). The skullcap was then closed with the removed bone.
Mice 1-9: 10 minutes after the trauma the animals got an intravenous bolus injection of 20 mg/kg VAS 3384 (=1.33 ml/kg) followed by an infusion of 1.5 mg/kg/min (=100 μl/kg/min) VAS 3384 over six hours to maintain the dose. After six hours, after termination of the infusion, and after 24 hours the ICP of the animals was measured. After 24 hours the animals were sacrificed, the brains dissected and the lesion volume determined by Nissl's method.
Mice 10-18: 10 minutes after the trauma the animals received an intravenous bolus injection of 1.33 ml/kg PBS followed by an infusion of 100 μl/kg/min PBS over six hours. After six hours, after the termination of the infusion, and after 24 hours the ICP of the animals was measured.
At the end of the observation period animals were sacrificed by cervical dislocation in deep halothane anaesthesia. The brains were carefully removed, frozen in powdered dry ice, and stored at −20° C. until further use. Ten μm coronal sections were prepared every 500 μm on a cryostat (CryoStar HM 560, Microm, Walldorf, Germany) and stained with cresyl violet. Sections were photographed with a digital camera system. The contusion area, the area of the non-traumatized tissue of the ipsilateral hemisphere, and the area of the contralateral hemisphere were determined on the digitized images with a standard image analysis software (Optimate 6.51, Media Cybernetics, Silver Spring, MD, USA) by an investigator blinded to the treatment of the animals. In order to correct for the swelling of contused tissue, the contusion area was calculated by subtracting the area of the non-traumatized tissue of the ipsilateral hemisphere from the area of the contralateral hemisphere. […]

Data set [2] can be described thus: Plasma pharmacokinetics after single rectal administration of VAS203 gel in rabbits. The format is in vivo. How it is done: In this Example, VAS203 was formulated as a gel at a concentration of 450 mg VAS203/ml for single rectal administration in rabbits. This formulation of VAS203 as a gel (450 mg/ml) was filled in 2 ml syringes pact in foil with an oxygen absorber.
Six rabbits were dosed with 1.5 ml of VAS203 gel (corresponding to a dosage of about 200 mg VAS203/kg body weight). Blood collection was carried out at pre-dose, 10 min, 20 min, 40 min, 1 h, 2 h, 3 h, 4 h, 5 h, 6 h, and 20-26 h after rectal administration. The whole blood samples (ca. 1-2 ml sufficient to obtain approx. 0.3 mL EDTA plasma/animal/sampling time), were collected into pre-cooled EDTA vials. To stabilise the blood samples, 1 mg Dithioerythritol (DTE) was added to approx. 1 mL blood. Within 15 minutes of blood collection the samples were centrifuged at 4° C. for 10 minutes. The plasma was transferred to vials and immediately frozen and stored at −80° C. for analysis.
The plasma concentrations (in μg/L) of VAS203, 7,8-Dihydroaminobiopterin (VAS3384, ABH2, the compound of formula (II) as shown in here) and Aminobiopterin (VAS3382, AB) were measured by liquid chromatography mass spectrometry (LC-MS).

The nature of data set [3]: Exposure control (pharmacokinetics) in NOSTRA III patients. The settings on record: TBI patients; for mean absolute concentration 12 hours after end of infusion / mean absolute concentration at the end of the infusion: Ronopterin 17 mg/kg infused for 48 hours. The format is in vivo, human. How it is done:
An exposure control was performed with samples collected after end of infusion and 12 hours after end of infusion.

A further data set concerns the target iNOS (Homo sapiens, UniProt P35228). In words: In vitro iNOS inhibition. The format is biochemical.
Data set [4] relates to nitric oxide synthase (NOS) / spinal NR2B-containing NMDA receptors. The following applies: rats, cited from earlier work.
Another data set relates to plasma glutamate. The following applies: neurosurgical patients, anesthesia; cited from earlier work.
A further data set deals with blood glutamate levels. The settings on record: rat; cited from earlier work.
The mark [5] stands for this setting: rabbits, single rectal VAS203 gel, about 200 mg/kg.

pIC50: −log10 of the molar value.

In the case of `CC(O)C(O)C1=Nc2c(N)nc(N)nc2NC1` [VAS3384, 4-Amino-(6R,S)-7,8-dihydro-L-biopterin], the “ICP after 6 hours” value in data set [1] (CCI mice, i.v. infusion of 560 mg/kg over 6 h, mean +/- SD, n=9/group, placebo 14.1+/−1.8, p=0.0005) is recorded as 10.4+/−1.9. The “ICP after 24 hours” value in data set [1] (CCI mice, i.v. infusion of 560 mg/kg over 6 h, placebo 10.7+/−2.3, non-significant) is 10.3+/−1.7. For the same compound, in data set [1] (infusion of 560 mg/kg for six hours, starting 10 minutes after CCI), the “reduction of the increased ICP compared with the placebo group” value is “significantly reduction of the increased ICP”. Besides, in data set [1], the “therapeutic activity of metabolites of VAS203” value is “still active”. In addition, the half-life in data set [2] (rabbit, in vivo, 200 mg/kg) was approximately 1.33 h. For the same compound, in data set [3], the “elimination 12 hours after end of infusion” value came to 56%, the “mean absolute concentration 12 hours after end of infusion” value stood at 476 ng/mL and the “mean absolute concentration at the end of the infusion” value is 1071 ng/mL. Also, at iNOS, the pIC50 is 4.92 and the “potency to inhibit the i-NOS in comparison to VAS203” value is given as “about ten times less potency”.

Take `C[C@@H](CN1CCC(Cc2ccccc2)CC1)[C@@H](O)c1ccc(O)cc1` [Ro25-6981]: the “oxaliplatin-increased intensity of NADPH diaphorase staining in the superficial layer of spinal dorsal horn” value in data set [4] (intrathecal injection) is listed as “reversed”.

For `CC(C)c1cccc(C(C)C)c1O` [propofol], in the data set on plasma glutamate, the plasma glutamate result is listed as “significantly increase”.

In the case of `O=[N+]([O-])c1cccc2cn[nH]c12` [7-nitroindazole], the oxaliplatin-induced pain behavior entry in data set [4] is recorded as “significantly suppressed”.

`C[C@H](O)[C@@H](O)c1cnc2nc(N)nc(N)c2n1` [aminobiopterin, Aminobiopterin]: the “therapeutic activity of metabolites of VAS203” value in data set [1] is reported as “no therapeutic activity”. For the same compound, in data set [2] (setting [5]), the elimination half-life result is “approximately 4 hours” and the “time to reach plateau of plasma concentration” value is reported as “approx. 50 minutes”. Also, in data set [3], the “mean absolute concentration 12 hours after end of infusion” value worked out at 37 ng/mL and the “mean absolute concentration at the end of the infusion” value is 52 ng/mL.

For `N[C@@H](Cc1cc(I)c(Oc2cc(I)c(O)c(I)c2)c(I)c1)C(=O)O` [L-thyroxine], in the data set on blood glutamate levels, the blood glutamate levels entry is recorded as “increased”.

Turning to `FC(F)OC(Cl)C(F)(F)F` (stereo not drawn) [Isoflurane], the plasma glutamate entry in the data set with plasma glutamate is listed as “significantly increase”.

Take `COC(=O)[C@@H](N)CCCNC(=N)N[N+](=O)[O-]` [L-NAME]: the oxaliplatin-induced pain behavior result in data set [4] is recorded as “significantly suppressed”.

By half-life is commonly meant the time needed for the level to fall by half in the phase considered. A low value points to rapid decline. What is called pIC50 is −log10 of the IC50, conventionally taken in molar units. The low end stands for a high IC50, the high end for a low IC50.
